What is called Kd is the free concentration of one partner at which half of the binding sites on the other are occupied at equilibrium, for simple one-to-one binding. By stoichiometry N is commonly meant the number of molecules, sites or subunits per partner or assembly. In general, IC50 refers to the concentration that gives 50% inhibition.

Entries after “also recorded” stand apart in the source; their conditions may differ.

We go through nine compounds from article PMC12765074, “Mechanistic insights into enterocin C targeting the undecaprenyl phosphate recycling protein BacA” (The Journal of Biological Chemistry, 2025).

One assay deals with BacAef/LcnGα (Enterococcus faecalis, UniProt A0ACD6TE02). The assay can be described thus: ITC, BacAef/LcnGα mixture. Type of assay: binding. As to conditions: 20 °C. A general note: ITC needs no label: the signal is the heat of the interaction.
In assay [1] the target is T1, BacAef (Enterococcus faecalis, UniProt A0ACD6TE02). Type of assay: biochemical.
Assay [2] concerns the target T1, BacAef. The assay can be described thus: ITC, BacAef. In kind it is binding. As to conditions: 20 °C; for -TΔS / ΔG / ΔH: into [BacAef] 33 μM.
Assay [3] deals with T1, BacAef. Kind of assay: DSS crosslinking. The settings on record: BacAef and peptide 17 μM each, DSS 100- or 1000-fold excess, 30 min, 4 °C. In kind it is binding. The protocol:
Crosslinking experiments were performed using the amine-reactive, membrane-permeable, and non-cleavable crosslinker disuccinimidyl suberate (DSS) purchased from Sigma. EntC peptides and BacA protein were mixed at equimolar concentrations (17 μM) in buffer D in the presence of an excess of DSS crosslinker (1000-fold or 100-fold) in a final reaction volume of 20 μl. The reaction was incubated for 30 min at 4°C, and any unreacted DSS was quenched with 50 mM Tris-HCl. After separation on a 12% acrylamide gel, proteins were electrotransferred onto polyvinylidene difluoride (PVDF) membrane, and BacA was detected using peroxidase-coupled anti-His tag antibody (Penta-His HRP conjugate from Qiagen, RRID: AB_3699318) by chemiluminescence detection (Western Lightning Plus-ECL, PerkinElmer) using the ChemiDoc MP system (Bio-Rad).

Assay [4] addresses T1, BacAef. Kind of assay: UppS-coupled C55-PP phosphatase assay in liposomes, BacAef. Type of assay: biochemical. As to conditions: liposomes.
For a further assay, the target named is BacAef/EntC1 (Enterococcus faecalis, UniProt A0ACD6TE02+Q9L9U6). Kind of assay: ITC, BacAef/EntC1 mixture. Type of assay: binding.
Assay [5] has as its target T1, BacAef. In kind it is binding. The method, then: Thermal stability of BacA protein in different mixtures of peptides was performed by DSC on a MicroCal model VP-DSC (Malvern Panalytical, Malvern, UK). BacA (33 μM) was mixed with different mixtures of peptides at twice the BacA concentration (i.e. 66 μM). Each measurement was preceded by a baseline scan with the standard buffer. Scans were performed at 1 K/min (60 °C/h) temperature ramp between 30 °C and 100 °C. The heat capacity of the buffer was subtracted from that of the protein sample before analysis. The thermodynamic parameters were determined by fitting the data to the following equation: ΔCp(T)=Kd(T)ΔHcalΔHvH/[1+Kd(T)]^2RT^2 where Kd is the equilibrium constant for a two-state process, ΔHvH the enthalpy calculated based on a two-state process and ΔHcal the measured enthalpy.

For assay [6], the system named is E. faecalis (V583-derivative strain, WT). Type of assay: cell-based, Enterococcus faecalis. The settings on record: 6 μl droplets on a lawn of E. faecalis, BHI 0.75% agar, overnight; representative of three independent experiments.
Assay [7] deals with N-terminal His6-tagged BacA from E. faecalis (BacAef) (Enterococcus faecalis). The assay can be described thus: ITC; peptides (400 μM) in the syringe titrated into the protein, or the protein premixed with one peptide, (33 μM) in the cell; 20 °C; 20 mM Tris-HCl pH 7.4, 200 mM NaCl, 0.1% DDM; single binding site model.
Assay [8] has the same target. The assay can be described thus: cross-linking; DSS (100- or 1000-fold excess), peptides and BacA at equimolar 17 μM in buffer D (20 mM HEPES pH 7.5, 0.2 M NaCl, 10% glycerol, 0.1% DDM), 30 min at 4 °C, quenched with 50 mM Tris-HCl; SDS-PAGE and anti-His blot of BacA.
The target is the same in assay [9].
For assay [10] the target is unchanged. The assay can be described thus: ITC; EntC1 (400 μM) in the syringe titrated into a mixture containing BacAef and EntC2 (33 μM) in the cell; 20 °C; 20 mM Tris-HCl pH 7.4, 200 mM NaCl, 0.1% DDM.
For assay [11] the target is unchanged. The source holds these as a separate data set.
Assay [12] deals with BacAef + LcnGα mixture (Enterococcus faecalis | Lactococcus lactis). The assay can be described thus: ITC; peptides (400 μM) in the syringe titrated into the protein, or the protein premixed with one peptide, (33 μM) in the cell; 20 °C; 20 mM Tris-HCl pH 7.4, 200 mM NaCl, 0.1% DDM; single binding site model.
Assay [13] deals with N-terminal His6-tagged BacA from E. faecalis (BacAef) (Enterococcus faecalis). This is another data set of the same source.
The subject of another assay is L. lactis strains. As to conditions: ref [6], [7], [8], cited from earlier work.
In the next assay the test system is L. lactis IL1403. Kind of assay: spot-on-lawn antibacterial assay, L. lactis. In kind it is cell-based, Lactococcus lactis. The settings on record: 6 μl droplets, L. lactis IL1403, M17G agar, overnight.
Assay [14] has as its target Fluorescein-labelled EntC1 (Enterococcus faecalis C901). Kind of assay: flow-induced dispersion analysis (FIDA).
The target is the same in assay [15]. Kind of assay: flow-induced dispersion analysis (FIDA); as the titration without EntC2, but in the presence of 200 nM EntC2 (twice the concentration of Fluo-EntC1); 25 °C; 20 mM Tris-HCl pH 7.4, 200 mM NaCl, 0.1% DDM; 1:1 binding model.
The mark [16] stands for this setting: ITC, peptides 400 μM into [BacAef] 33 μM, 20 mM Tris-HCl pH 7.4, 200 mM NaCl, 0.1% DDM, at least triplicate.
[17] abbreviates: ITC, 20 °C, into [BacAef/EntC1].

For the compound `CC[C@H](C)[C@H](NC(=O)CNC(=O)[C@H](CCCCN)NC(=O)[C@H](C)NC(=O)[C@H](CC(C)C)NC(=O)CNC(=O)[C@H](C)NC(=O)[C@@H](NC(=O)[C@H](Cc1ccccc1)NC(=O)[C@H](CC(=O)O)NC(=O)[C@H](Cc1ccc(O)cc1)NC(=O)[C@H](C)NC(=O)[C@@H]1CCCN1C(=O)[C@H](CCC(N)=O)NC(=O)[C@H](CC(C)C)NC(=O)[C@H](Cc1c[nH]c2ccccc12)NC(=O)[C@@H]1CCCN1C(=O)[C@H](CC(C)C)NC(=O)[C@H](Cc1c[nH]c2ccccc12)NC(=O)[C@H](CCCCN)NC(=O)CNC(=O)[C@@H]1CCCN1C(=O)CN)C(C)C)C(=O)NCC(=O)N[C@@H](CCCCN)C(=O)N[C@@H](CCC(=O)O)C(=O)NCC(=O)N[C@@H](CC(N)=O)C(=O)N[C@@H](CCCCN)C(=O)N[C@@H](CC(N)=O)C(=O)N[C@@H](CCCCN)C(=O)N[C@@H](Cc1c[nH]c2ccccc12)C(=O)N[C@@H](CCCCN)C(=O)N[C@@H](CC(N)=O)C(=O)N[C@H](C(=O)O)C(C)C` (single isomer, unassigned) [EntC2], the n on BacAef/LcnGα (400 μM into [BacAef/LcnGα] 33 μM) was 0.77 ± 0.01; on BacAef/EntC1 (ITC, 20 °C, 400 μM into [BacAef/EntC1] 33 μM), 0.95 ± 0.01. The “-TΔS” value on BacAef/LcnGα (into [BacAef/LcnGα]) was 10.5 kcal/mol; at BacAef [2] (ITC), “No binding”; on BacAef/EntC1 (setting [17]) it was 6.5 kcal/mol. Also, the results for the ΔG at BacAef/LcnGα (into [BacAef/LcnGα]), at BacAef [2] (ITC) and at BacAef/EntC1 (setting [17]) were -9.0 kcal/mol, “No binding” and -10.3 kcal/mol, respectively. For the same compound, the ΔH at BacAef/LcnGα (into [BacAef/LcnGα]) was -19.5 kcal/mol; on BacAef [2] (ITC), “No binding”; at BacAef/EntC1 (setting [17]), -16.8 kcal/mol. The “inhibition of BacAef C55-PP phosphatase activity” value on BacAef [1] (DDM micelles, EntC2 up to 50 μM, pH 7.4, 37 °C, 10 min) is given as “no inhibition”. Besides, the KD result on BacAef [2] (setting [16]) is “No binding”. Also, the “binding to BacAef (ITC, words)” value on BacAef [2] (titration on BacAef alone) was “No binding”. In addition, the “crosslinked complex band with BacAef (SDS-PAGE, western blot)” value on BacAef [3] is listed as “a very faint band”. Further, the “effect on BacAef activity in liposomes” value on BacAef [4] is recorded as “no effect”. The “affinity of second binding event relative to EntC1 binding (fold)” value on BacAef/EntC1 (EntC2 into BacAef/EntC1 versus EntC1 into BacAef) is “about 10 -fold”. Besides, the “DSC signal change of BacAef” value at BacAef [5] (EntC2 at twice the concentration of BacAef) was “did not change the DSC signal”. Also, in assay [6], the “antibacterial activity (spot-on-lawn), E. faecalis” value is “neither peptide exhibited antibacterial activity when applied individually”.
As for `[Ca+2].[Cl-].[Cl-]` [CaCl2], at BacAef [1] (after 500 μM EDTA, pH 7.5, 0.1% DDM), the “restoration of BacAef activity following EDTA treatment” value is given as “restored”.
Consider `O=C(O)CN(CCN(CC(=O)O)CC(=O)O)CC(=O)O` [EDTA], for which, at BacAef [1], the “effect on BacAef C55-PP phosphatase activity” value is on record as “inhibited its activity”.
In the case of “EntC1-LcnGβ chimera bacteriocin (EntC1 and LcnGβ together) (complex)”, in assay [7], the equilibrium dissociation constant (Kd) stood at 0.307 µM, the dH is -19.4 kcal/mol and the stoichiometry N turned out to be 0.79.
“Enterocin C peptide EntC1 (mature, synthetic)” showed a stoichiometry N in assay [8] of 1. Further, in assay [9], the DSC: Tm of BacAef (33 μM) with the peptide at 66 μM (66.3°C without peptide) amounted to 73 °C and the DSC: enthalpy of denaturation ΔH of BacAef (33 μM) with the peptide at 66 μM (26.7 kcal/mol without peptide) was 45.3 kcal/mol. In assay [7], this compound showed an equilibrium dissociation constant (Kd) of 0.306 µM, a dH of -5.4 kcal/mol and a stoichiometry N of 0.6. For the same compound, in assay [10], the Kd was 0.48 µM, the dH was -27.6 kcal/mol and the stoichiometry N turned out to be 0.69. The IC50 of inhibition of the C55-PP phosphatase activity of BacAef in DDM micelles in assay [11] was found to be 0.8 µM.
On to “Enterocin C peptide EntC2 (mature, synthetic)”, for which, in assay [12], the dH was -19.5 kcal/mol and the stoichiometry N worked out at 0.77.
In assay [7], “Lactococcin G (LcnGα and LcnGβ together) (complex)” yielded a Kd of 0.165 µM, a dH of -20.4 kcal/mol and a stoichiometry N of 0.62. Besides, the IC50 of inhibition of the C55-PP phosphatase activity of BacAef in vitro in assay [13] was found to be 0.8 µM.
In the case of “Lactococcin G [LcnG, reference compound]”, the membrane permeabilization entry in the assay with L. lactis strains (1:1 ratio of LcnGα and LcnGβ) is “membrane permeabilization to monovalent cations”. Further, the “antibacterial activity against L. lactis strains” value in the assay with L. lactis strains was “antibacterial activity at nanomolar concentrations”. At BacAef [1] (DDM micelles, 20 mM Tris-HCl pH 7.4, 400 μM CaCl2, 150 mM NaCl, 0.1% DDM, 50 μM [14C]C55-PP, 10 min, 37 °C, TLC, EntC vs EntC1 p-value = 0.0007, read-out: IC50, BacAef C55-PP phosphatase activity), the half-inhibitory concentration (IC50) amounted to 0.8 µM. Besides, on BacAef [2] (ITC), the “-TΔS” value came out at 11.3 kcal/mol, the ΔG was -9.1 kcal/mol and the ΔH was -20.4 kcal/mol. The compound further gave a Kd at BacAef [2] (setting [16]) of 0.165 ± 0.019 µM. This compound also had a n at BacAef [2] (ITC, peptides 400 μM into [BacAef] 33 μM, pH 7.4, 0.1% DDM, at least triplicate) of 0.62 ± 0.01. Also, on BacAef [5] (LcnG versus EntC), the “difference in Tm between EntC and LcnG complexes with BacAef” value is 6.8 °C; the “difference in ΔH between EntC and LcnG complexes with BacAef” value came out at 7.8 kcal/mol. Besides, the “antibacterial activity (spot-on-lawn), L. lactis” value with L. lactis IL1403 is listed as “sensitivity to both bacteriocins”. Besides, in assay [6], the “antibacterial activity (spot-on-lawn), E. faecalis” value was “E. faecalis was only susceptible to EntC; also recorded: inactive against E. faecalis”.
As for “N-terminal His6-tagged BacA from E. faecalis (BacAef) (enzyme)”, the Kd was 0.096 µM in assay [14] and 0.086 µM in [15]. For the same compound, in [8], the stoichiometry N stood at 2.
